Target: T1, human Y5 receptor (Homo sapiens, UniProt Q15761)
T1 construct: expressed in transfected cells; host or cells: mouse fibroblast LM(tk-) cells, e.g. L-hY5-7 (ATCC CRL-11995)
T1 sequence (Q15761 1-445): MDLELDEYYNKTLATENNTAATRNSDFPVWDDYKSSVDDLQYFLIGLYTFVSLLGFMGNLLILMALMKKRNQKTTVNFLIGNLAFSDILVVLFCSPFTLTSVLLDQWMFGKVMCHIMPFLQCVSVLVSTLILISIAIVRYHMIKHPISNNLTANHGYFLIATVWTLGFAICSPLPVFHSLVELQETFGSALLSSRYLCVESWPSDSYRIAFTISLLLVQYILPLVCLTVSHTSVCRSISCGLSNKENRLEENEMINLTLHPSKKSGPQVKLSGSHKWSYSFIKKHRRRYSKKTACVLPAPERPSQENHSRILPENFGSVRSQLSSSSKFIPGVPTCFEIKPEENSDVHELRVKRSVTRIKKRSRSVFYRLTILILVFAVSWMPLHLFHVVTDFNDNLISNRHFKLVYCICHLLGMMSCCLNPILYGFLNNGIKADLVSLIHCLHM
Experiment: Radioligand binding to membranes, cloned human Y5 receptor
Conditions: Table 1; read-out: Ki (nM) hNPY-5
Protocol: Binding of the compounds of the present invention to human Y1, Y2, Y4, and Y5 receptors was evaluated using stably transfected 293 or LM(tk-) cells as described above.
Membranes were harvested from COS-7 cells 48 hours after transient transfection. Adherent cells were washed twice in ice-cold phosphate buffered saline (138 mM NaCl, 8.1 mM Na2HPO4, 2.5 mM KCl, 1.2 mM KH2PO4, 0.9 mM CaCl2, 0.5 mM MgCl2, pH 7.4) and lysed by sonication in ice-cold sonication buffer (20 mM Tris-HCl, 5 mM EDTA, pH 7.7). Large particles and debris were cleared by low speed centrifugation (200×g, 5 min, 4° C.). Membranes were collected from the supernatant fraction by centrifugation (32,000×g, 18 min, 4° C.), washed with ice-cold hypotonic buffer, and collected again by centrifugation (32,000×g, 18 min, 4° C.). The final membrane pellet was resuspended by sonication into a small volume of ice-cold binding buffer (˜1 ml for every 5 plates: 10 mM NaCl, 20 mM HEPES, 0.22 mM KH2PO4, 1.26 mM CaCl2, 0.81 mM MgSO4, pH 7.4). Protein concentration was measured by the Bradford method (Bradford, 1976) using Bio-Rad Reagent, with bovine serum albumin as a standard. Membranes were held on ice for up to one hour and used fresh, or flash-frozen and stored in liquid nitrogen.
Membranes were prepared similarly from 293, LM(tk-), and NIH-3T3 cells.
Membrane suspensions were diluted in binding buffer supplemented with 0.1% bovine serum albumin to yield an optimal membrane protein concentration so that ^125I-PYY (or alternative radioligand such as ^125I-NPY, ^125I-NYY3-36, or ^125I-[Leu^31Pro^34]PYY) bound by membranes in the assay was less than 10% of ^125I-PYY (or alternative radioligand) delivered to the sample (100,000 dpm/sample=0.08 nM for competition binding assays). ^125I-PYY (or alternative radioligand) and peptide competitors were also diluted to desired concentrations in supplemented binding buffer. Individual samples were then prepared in 96-well polypropylene microtiter plates by mixing ^125I-PYY (25 μL) (or alternative radioligand), competing peptides or supplemented binding buffer (25 μL), and finally, membrane suspensions (200 μL). Samples were incubated in a 30° C. water bath with constant shaking for 120 min. Incubations were terminated by filtration over Whatman GF/C filters (pre-coated with 1% polyethyleneimine and air-dried before use), followed by washing with 5 mL of ice-cold binding buffer. Filter-trapped membranes were impregnated with MeltiLex solid scintillant (Wallac, Turku, Finland) and counted for ^125I in a Wallac Beta-Plate Reader. Alternatively, incubations were carried out in GF/C filter plates (pre-coated with 1% polyethyleneimine and air-dried before use), followed by vacuum filtration and three washes of 300 μL of ice-cold binding buffer. 50 μL of UltimaGold (Packard) scintillant were added and counted for ^125I, in a Wallac MicroBeta Trilux. Non-specific binding was defined by 300 nM human NPY for all receptors except the Y4 subtypes; 100 nM human PP was used for the human Y4 and 100 nM rat PP for the rat Y4.

Ki [nM] | SMILES
18 | CCCNc1nc(NCC2CCC(CNS(=O)(=O)c3cccc4ccccc34)CC2)nc(NC(C)C)n1 (stereo not shown) [Example 5, N1-[4-([4-(isopropylamino)-6-(propylamino)-1,3,5-triazin-2-yl]aminomethyl)cyclohexyl]methyl-1-naphthalenesulfonamide]
22 | CCCCNc1nc(NCC2CCC(CNS(=O)(=O)c3cccc4ccccc34)CC2)nc(NC(C)C)n1 (stereo not shown) [Example 6, N1-[4-([4-(butylamino)-6-(isopropylamino)-1,3,5-triazin-2-yl]aminomethyl)cyclohexyl]methyl-1-naphthalenesulfonamide]

Same assay, conditions: Table 2; read-out: Ki (nM) hNPY-5

Ki [nM] | SMILES
22 | CCNc1nc(NCC)nc(NCC2CCC(CNS(=O)(=O)c3ccccc3C)CC2)n1 (stereo not shown) [Example 33, N1-[4-([4,6-di(ethylamino)-1,3,5-triazin-2-yl]aminomethyl)cyclohexyl]methyl-2-methyl-1-benzenesulfonamide]
40 | CCNc1nc(NCC)nc(NCC2CCC(CNS(=O)(=O)c3ccc(F)cc3)CC2)n1 (stereo not shown) [Example 30, N1-[4-([4,6-di(ethylamino)-1,3,5-triazin-2-yl]aminomethyl)cyclohexyl]methyl-4-fluoro-1-benzenesulfonamide]
13 | CCNc1nc(NCC)nc(NCC2CCC(CNS(=O)(=O)c3cccc4cccnc34)CC2)n1 (stereo not shown) [Example 41, N8-[4-([4,6-di(ethylamino)-1,3,5-triazin-2-yl]aminomethyl)cyclohexyl]methyl-8-quinolinesulfonamide]

Same assay, conditions: Table 3; read-out: Ki (nM) hNPY-5

Ki [nM] | SMILES
20700 | CN(C)S(=O)(=O)NCC1CCC(CNc2nc(Cl)nc(Cl)n2)CC1 (stereo not shown) [Example 53, N′-((4-(((4,6-dichloro-1,3,5-triazin-2-yl)amino)methyl)cyclohexyl)methyl)-N,N-dimethylsulfamide]
59 | CC(C)Nc1nc(NCC2CCC(CNS(=O)(=O)N3CCCCC3)CC2)nc(N2CCCCC2)n1 (stereo not shown) [Example 45, N1-[4-([4-(isopropylamino)-6-piperidino-1,3,5-triazin-2-yl]aminomethyl)cyclohexyl]methyl-1-piperidinesulfonamide]

Same assay, conditions: Table 5; read-out: Ki, nM hNPY-5

Ki [nM] | SMILES
6.6 | Cc1nc(-c2csc(N[C@H]3CC[C@H](CNS(=O)(=O)c4ccc(F)cc4)CC3)n2)c(C)s1 [Example 97]
8.4 | O=S(=O)(N[C@H]1CC[C@H](CNc2nc(-c3ccccn3)cs2)CC1)c1ccccc1F [Example 84, trans-2-(4-(2-Fluorophenyl)sulfonylamino)cyclohexylmethyl-amino-4-(2-pyridyl)thiazole dihydrogen chloride]
3.1 | Cc1nc(-c2cnc(NC[C@H]3CC[C@H](CNS(=O)(=O)N(C)C)CC3)s2)c(C)s1 [Example 99, trans-N′-[4-([5-(2,5-Dimethyl-1,3-thiazol-4-yl)-1,3-thiazol-2-yl]aminomethyl)cyclohexyl]methyl-N,N-dimethyl-sulfamide]

Same assay, conditions: Table 6; read-out: Ki, nM hNPY-5

Ki [nM] | SMILES
100 | O=C(NCCCCCNc1nc2c(s1)CCSc1ccccc1-2)c1ccc2ccccc2c1 [Example 142, N2-[5-(4,5-Dihydrobenzo[2,3]thiepino[4,5-d][1,3]thiazol-2-ylamino)pentyl]-2-naphthamide]
7.1 | O=[N+]([O-])c1ccccc1S(=O)(=O)NCCCCCCNc1nc2c(s1)CCSc1ccccc1-2 [Example 116, N1-[6-(4,5-Dihydrobenzo[2,3]thiepino[4,5-d][1,3]thiazol-2-ylamino)hexyl]-2-nitro-1-benzenesulfonamide]
33 | Cn1cnc(S(=O)(=O)NC[C@H]2CC[C@H](Nc3nc4c(s3)CCSc3ccccc3-4)CC2)c1 [Example 125, N4-{[4-(4,5-Dihydrobenzo[2,3]thiepino[4,5-d][1,3]thiazol-2-ylamino)cyclohexyl]methyl}-1-methyl-1h-4-imidazolesulfonamide]
7.9 | O=S(=O)(NC[C@H]1CC[C@H](Nc2nc3c(s2)CCSc2ccccc2-3)CC1)c1ccc(F)cc1F [Example 151, N1-{[4-(4,5-Dihydrobenzo[2,3]thiepino[4,5-d][1,3]thiazol-2-ylamino)cyclohexyl]methyl}-2,4-difluoro-1-benzenesulfonamide]
5.4 | CCS(=O)(=O)NCCCCCCNc1nc2c(s1)CCSc1ccccc1-2 [Example 105, N1-[6-(4,5-Dihydrobenzo[2,3]thiepino[4,5-d][1,3]thiazol-2-ylamino)hexyl]-1-ethanesulfonamide]
29 | O=S(=O)(NCCCCCCNc1nc2c(s1)CCSc1ccccc1-2)c1ccc(-c2ccon2)s1 [Example 129, N2-[6-(4,5-Dihydrobenzo[2,3]thiepino[4,5-d][1,3]thiazol-2-ylamino)hexyl]-5-(3-isoxazolyl)-2-thiophenesulfonamide]
84 | O=C(NCCCCCNc1nc2c(s1)CCSc1ccccc1-2)c1cccs1 [Example 141, N2-[5-(4,5-Dihydrobenzo[2,3]thiepino[4,5-d][1,3]thiazol-2-ylamino)pentyl]-2-thiophenecarboxamide]
4.4 | O=S(=O)(NCCCCCCNc1nc2c(s1)CCSc1ccccc1-2)c1cccc2nsnc12 [Example 112, N4-[6-(4,5-Dihydrobenzo[2,3]thiepino[4,5-d][1,3]thiazol-2-ylamino)hexyl]-2,1,3-benzothiadiazole-4-sulfonamide]
17.4 | O=S(=O)(NC[C@H]1CC[C@H](Nc2nc3c(s2)CCSc2ccccc2-3)CC1)c1c(Cl)cccc1Cl [Example 152, N1-{[4-(4,5-Dihydrobenzo[2,3]thiepino[4,5-d][1,3]thiazol-2-ylamino)cyclohexyl]methyl}-2,6-dichloro-1-benzenesulfonamide]
5.2 | O=[N+]([O-])c1ccccc1S(=O)(=O)NCCCCCNc1nc2c(s1)CCSc1ccccc1-2 [Example 130, N1-[5-(4,5-Dihydrobenzo[2,3]thiepino[4,5-d][1,3]thiazol-2-ylamino)pentyl]-2-nitro-1-benzenesulfonamide]
9.7 | COc1cccc(Br)c1S(=O)(=O)NCCCCCNc1nc2c(s1)CCSc1ccccc1-2 [Example 132, N1-[5-(4,5-Dihydrobenzo[2,3]thiepino[4,5-d][1,3]thiazol-2-ylamino)pentyl]-2-bromo-6-methoxy-1-benzenesulfonamide]
10.5 | O=S(=O)(Cc1ccccc1)NCCCCCCNc1nc2c(s1)CCSc1ccccc1-2 [Example 148, N-[6-(4,5-Dihydrobenzo[2,3]thiepino[4,5-d][1,3]thiazol-2-ylamino)hexyl]phenylmethane-sulfonamide]
25 | O=S(=O)(NCCCCCCNc1nc2c(s1)CCSc1ccccc1-2)c1c(Cl)cccc1Cl [Example 146, N1-[6-(4,5-Dihydrobenzo[2,3]thiepino[4,5-d][1,3]thiazol-2-ylamino)hexyl]-2,6-dichloro-1-benzenesulfonamide]
13 | COCCN(C=O)[C@H]1CC[C@H](CNc2nc3c(s2)CCSc2ccc(F)cc2-3)CC1 [Example 164, trans-N-(4-[(9-Fluoro-4,5-dihydrobenzo[2,3]thiepino-[4,5-d][1,3]thiazol-2-yl)amino]methylcyclohexyl)-N-(2-methoxyethyl)formamide]
16.6 | O=S(=O)(NCCCCCCNc1nc2c(s1)CCSc1ccccc1-2)c1cccc2ccccc12 [Example 114, N1-[6-(4,5-Dihydrobenzo[2,3]thiepino[4,5-d][1,3]thiazol-2-ylamino)hexyl]-1-naphthalenesulfonamide]

Reference: US7189720B2 (H. Lundbeck A/S, priority 1999, dated 2007)
